From patent publication US8163909B2, “Substituted hydroxyethyl amine compounds as beta-secretase modulators and methods of use” (Amgen Inc., priority 2007, dated 2012)
Where two headings read alike, the source gives them in different places.

Columns and labels:
CYP2D6 = CYP2D6 (Homo sapiens, UniProt P10635); experiment: CYP2D6 inhibition assay (bufuralol, pooled human liver microsomes)
[1] = Microsomal stability assay, human liver microsomes;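 also: pooled human liver microsomes at 0.25 mg/mL with 1 µM compound and NADPH at 37 °C, pH 7.4, for 30 min, unchanged parent quantified by LC-MS/MS against the 0 min sample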
[2] = tested on: Aβ40 in conditioned medium of cells stably expressing Amyloid Precursor Protein (APP); experiment: In vitro BACE cell-based assay (Aβ40 in conditioned medium, sandwich ELISA); details: Homo sapiens;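 also: compounds added as a dilution series, secreted peptide quantified by europium time-resolved fluorescence readout, potency fitted from percent of control versus compound concentration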
[3] = Microsomal stability assay, rat liver microsomes;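 also: rat liver microsomes (0.25 mg/mL) with about 1 µM compound plus 1 mM NADPH, pH 7.4, 37 °C for 30 min, parent left measured by LC-MS/MS against 0 min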
CYP3A4 (CYP3A) = CYP3A4 (CYP3A) (Homo sapiens, UniProt P08684); experiment: in vitro; details: microsomes, pH 7.4;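 also: inhibition of CYP3A-mediated 1-hydroxymidazolam formation after 10 min incubation with NADPH, quantified by HPLC MS relative to metabolite produced without test compound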
Chain of CYP3A4 (CYP3A) (P08684 2-503): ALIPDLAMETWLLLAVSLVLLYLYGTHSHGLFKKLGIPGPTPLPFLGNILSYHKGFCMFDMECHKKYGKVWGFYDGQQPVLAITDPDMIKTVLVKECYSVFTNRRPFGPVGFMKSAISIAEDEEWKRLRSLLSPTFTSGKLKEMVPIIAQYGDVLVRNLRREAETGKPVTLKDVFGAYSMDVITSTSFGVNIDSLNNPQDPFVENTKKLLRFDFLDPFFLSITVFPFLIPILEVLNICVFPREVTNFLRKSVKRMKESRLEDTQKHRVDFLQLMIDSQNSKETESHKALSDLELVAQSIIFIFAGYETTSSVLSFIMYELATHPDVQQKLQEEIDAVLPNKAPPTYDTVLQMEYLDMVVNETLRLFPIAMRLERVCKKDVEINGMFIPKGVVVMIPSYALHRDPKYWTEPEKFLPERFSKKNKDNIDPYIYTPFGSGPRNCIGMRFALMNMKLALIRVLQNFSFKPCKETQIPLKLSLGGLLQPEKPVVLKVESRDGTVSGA

[4] = target: Beta Secretase enzyme (BACE) (Homo sapiens, UniProt P56817); experiment: In vitro enzymatic BACE FRET (fluorescence resonance energy transfer) assay; assay type: biochemical;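 also: fluorescence read after 1 h with 50 nM quenched peptide substrate spanning the BACE cleavage site, in pH 4.2 acetate buffer containing 10% DMSO and nonionic detergent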
Chain of Beta Secretase enzyme (BACE) (P56817 46-501): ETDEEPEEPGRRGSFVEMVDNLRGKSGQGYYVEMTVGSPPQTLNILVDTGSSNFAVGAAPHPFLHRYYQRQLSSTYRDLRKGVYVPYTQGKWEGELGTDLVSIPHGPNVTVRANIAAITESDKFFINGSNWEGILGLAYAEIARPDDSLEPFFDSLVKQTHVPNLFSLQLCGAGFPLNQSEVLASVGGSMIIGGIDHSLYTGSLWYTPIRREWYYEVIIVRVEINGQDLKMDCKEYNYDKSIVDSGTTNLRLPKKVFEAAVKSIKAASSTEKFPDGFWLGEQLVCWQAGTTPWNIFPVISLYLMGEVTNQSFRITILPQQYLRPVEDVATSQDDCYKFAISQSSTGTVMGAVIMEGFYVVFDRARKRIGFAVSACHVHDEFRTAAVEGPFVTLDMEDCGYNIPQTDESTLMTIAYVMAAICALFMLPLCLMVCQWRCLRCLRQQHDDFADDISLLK

[5] = 2D6 IC50 (uM), CYP enzyme inhibition
[6] = HEK293, HEK cell-based assay, IC50's in uM, read-out: HEK cell assay
[7] = BACE enzyme assay, IC50's in uM, read-out: BACE1 FRET assay
[8] = 2D6 IC50 (uM), CYP2D6 inhibition
[9] = HEK293, HEK cell-based assay IC50, read-out: HEK cell assay
[10] = BACE enzyme assay IC50, read-out: BACE1 FRET assay
[11] = HEK293, HEK cells, read-out: HEK cell assay
[12] = BACE enzyme assay, read-out: BACE1 FRET assay
[13] = 2D6 IC50, CYP enzyme inhibition
[14] = HEK293, cell-based assay, HEK cells, IC50's in uM, read-out: HEK cell assay
[15] = HEK293, HEK cells, read-out: HEK cell assay (IC50)
[16] = read-out: BACE1 FRET assay (IC50)

Chain of CYP2D6 (P10635 whole entry): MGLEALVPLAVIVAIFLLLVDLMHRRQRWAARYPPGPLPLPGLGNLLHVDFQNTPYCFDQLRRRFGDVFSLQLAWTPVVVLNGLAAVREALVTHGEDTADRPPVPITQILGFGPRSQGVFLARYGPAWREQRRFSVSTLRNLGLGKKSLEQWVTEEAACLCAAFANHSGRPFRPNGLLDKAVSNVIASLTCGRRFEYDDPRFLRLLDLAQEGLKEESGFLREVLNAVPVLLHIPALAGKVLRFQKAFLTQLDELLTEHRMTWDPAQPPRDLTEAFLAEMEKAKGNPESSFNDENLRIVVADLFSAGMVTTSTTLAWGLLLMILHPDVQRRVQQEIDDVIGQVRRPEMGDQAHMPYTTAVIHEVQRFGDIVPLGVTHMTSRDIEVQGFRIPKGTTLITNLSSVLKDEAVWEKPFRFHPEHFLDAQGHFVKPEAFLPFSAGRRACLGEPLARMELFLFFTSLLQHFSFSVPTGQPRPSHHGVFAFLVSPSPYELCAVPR

CO[C@H](C)C(=O)N[C@@H](Cc1cncs1)[C@H](O)CN[C@H]1CC2(CCC2)Oc2c1cc(CC(C)(C)C)nc2-c1ccccn1 [compound 781]
IC50 (CYP2D6; [5]): ≥ 27 µM
HLM ([1]; human liver microsomal data): 104 µL/min/mg
IC50 [2, 6]: 0.206 µM
RLM ([3]; rat liver microsomal data): 82 µL/min/mg
IC50 (CYP3A4 (CYP3A)): 400 nM
IC50 [4, 7]: 0.071 µM

CO[C@H](C)C(=O)N[C@@H](Cc1ccc(-c2nccs2)cc1)[C@H](O)CN[C@H]1CC2(CCC2)Oc2ncc(CC(C)(C)C)cc21 [compound 735]
IC50 (CYP2D6; [8]): 1 µM
HLM ([1]; human liver microsomes): 78 µL/min/mg
IC50 [2, 9]: 0.06 µM
RLM ([3]; rat liver microsomes): 80 µL/min/mg
IC50 (CYP3A4 (CYP3A)): ≤ 30 nM
IC50 [4, 10]: 0.049 µM

COCC(=O)N[C@@H](Cc1ccc(F)cc1)[C@H](O)CN[C@@H]1CC2(CCC2)Oc2c1cc(CC(C)(C)C)nc2C#N [compound 492]
IC50 (CYP2D6; [5]): 8.2 µM
HLM ([1]; human liver microsomal data): 94 µL/min/mg
IC50 [2, 11]: 0.462 µM
RLM ([3]; rat liver microsomal data): 190 µL/min/mg
IC50 (CYP3A4 (CYP3A)): 400 nM
IC50 [4, 12]: 5.04 µM

COCC(=O)N[C@@H](Cc1cc(F)cc(-c2nccs2)c1)[C@H](O)CN[C@H]1CC2(CCC2)Oc2ncc(C3CC3)cc21 [compound 749]
IC50 (CYP2D6; [8]): 1.6 µM
HLM ([1]; human liver microsomes): 59 µL/min/mg
IC50 [2, 9]: 0.074 µM
RLM ([3]; rat liver microsomes): 51 µL/min/mg
IC50 (CYP3A4 (CYP3A)): 300 nM
IC50 [4, 10]: 0.046 µM

COCC(=O)N[C@@H](Cc1cccc(F)c1)[C@H](O)CN[C@H]1CC2(CCC2)Oc2c(Br)cc(CC(C)C)cc21 [compound 514]
IC50 (CYP2D6; [5]): 6 µM
HLM ([1]; human liver microsomal data): 682 µL/min/mg
IC50 [2, 11]: 0.128 µM
RLM ([3]; rat liver microsomal data): 560 µL/min/mg
IC50 (CYP3A4 (CYP3A)): 1500 nM
IC50 [4, 12]: 0.003 µM

COCC(=O)N[C@@H](Cc1cc(Br)cc(Br)c1)[C@H](O)CN[C@H]1CC2(CCC2)Oc2ncc(CC(C)(C)C)cc21 [compound 892]
IC50 (CYP2D6; [13]): 3.9 µM
HLM ([1]; human liver microsomal data): 399 µL/min/mg
IC50 [2, 14]: 0.009 µM
RLM ([3]; rat liver microsomal data): 274 µL/min/mg
IC50 (CYP3A4 (CYP3A)): 100 nM
IC50 [4, 7]: 0.07 µM

CNc1cc(CC(C)(C)C)cc2c1OC1(CCC1)C[C@@H]2NC[C@@H](O)[C@H](Cc1cc(F)cc(F)c1)NC(=O)COC [compound 479]
IC50 (CYP2D6; [13]): 6.4 µM
HLM ([1]; human liver microsomal data): 167 µL/min/mg
IC50 ([2]; HEK293, Table 2, HEK cells, read-out: HEK cell assay): 0.017 µM
RLM ([3]; rat liver microsomal data): 329 µL/min/mg
IC50 (CYP3A4 (CYP3A)): 1800 nM
IC50 ([4]; Table 2, read-out: BACE1 FRET assay): 0.011 µM

CC(=O)N[C@@H](Cc1cc(F)cc(-c2ccncc2)c1)[C@H](O)CN[C@H]1CC2(CCC2)Oc2ncc(CC(C)(C)C)cc21 [compound 614]
IC50 (CYP2D6; 2D6 IC50, CYP2D6 inhibition): 0.4 µM
HLM ([1]; human liver microsomes): 244 µL/min/mg
IC50 [2, 15]: 0.008 µM
RLM ([3]; rat liver microsomes): 107 µL/min/mg
IC50 (CYP3A4 (CYP3A)): 160 nM
IC50 [4, 16]: 0.012 µM

CC(=O)N[C@@H](Cc1ccc(F)c(-c2ncc[nH]2)c1)[C@H](O)CN[C@H]1CC2(CCC2)Oc2ncc(CC(C)(C)C)cc21 [Example 428, N-((2S,3R)-4-((S)-2,2-spirocyclobutyl-6-neopentyl-3,4-dihydro-2H-pyrano[2,3-b]pyridin-4-ylamino)-1-(4-fluoro-3-(1H-imidazol-2-yl)phenyl)-3-hydroxybutan-2-yl)acetamide]
IC50 (CYP2D6; [8]): 1.3 µM
HLM ([1]; human liver microsomes): 225 µL/min/mg
IC50 [2, 9]: 0.013 µM
RLM ([3]; rat liver microsomes): 124 µL/min/mg
IC50 (CYP3A4 (CYP3A)): 300 nM
IC50 [4, 10]: 0.061 µM

CCOCC(=O)N[C@@H](Cc1cccc(-c2nccs2)c1)[C@H](O)CN[C@H]1CC2(CCC2)Oc2ncc([C@@H]3CC3(C)C)cc21 [compound 914, N-((1S,2R)-3-(((4′S)-6′-((1R)-2,2-dimethylcyclopropyl)-3′,4′-dihydrospiro[cyclobutane-1,2′-pyrano[2,3-b]pyridin]-4′-yl)amino)-2-hydroxy-1-(3-(1,3-thiazol-2-yl)benzyl)propyl)-2-ethoxyacetamide]
IC50 (CYP2D6; [13]): 0.2 µM
HLM ([1]; human liver microsomal data): 57 µL/min/mg
IC50 [2, 14]: 0.008 µM
RLM ([3]; rat liver microsomal data): 61 µL/min/mg
IC50 (CYP3A4 (CYP3A)): 200 nM
IC50 [4, 7]: 0.002 µM

CCOCC(=O)N[C@@H](Cc1cccc(F)c1)[C@H](O)CN[C@H]1CC2(CCC2)Oc2ncc(CC(C)(C)C)cc21 [compound 660]
IC50 (CYP2D6; 2D6 IC50, CYP2D6 inhibition): 1.9 µM
HLM ([1]; human liver microsomes): 829 µL/min/mg
IC50 [2, 15]: 0.018 µM
RLM ([3]; rat liver microsomes): 775 µL/min/mg
IC50 (CYP3A4 (CYP3A)): 200 nM
IC50 [4, 16]: 0.003 µM

CO[C@H](C)C(=O)N[C@@H](Cc1cccc(-c2nccs2)c1F)[C@H](O)CN[C@H]1CC2(CCC2)Oc2ncc(CC(C)(C)C)cc21 [compound 909]
IC50 (CYP2D6; [13]): 0.9 µM
HLM ([1]; human liver microsomal data): 76 µL/min/mg
IC50 [2, 14]: 0.052 µM
RLM ([3]; rat liver microsomal data): 127 µL/min/mg
IC50 (CYP3A4 (CYP3A)): 100 nM
IC50 [4, 7]: 0.157 µM

CO[C@H](C)C(=O)N[C@@H](Cc1cc(F)cc(F)c1)[C@H](O)CN[C@H]1CC2(CCC2)Oc2c1cc(C1CC1)cc2-n1ccnc1 [compound 707]
IC50 (CYP2D6; [8]): 0.6 µM
HLM ([1]; human liver microsomes): 14 µL/min/mg
IC50 [2, 9]: 0.028 µM
RLM ([3]; rat liver microsomes): 39 µL/min/mg
IC50 (CYP3A4 (CYP3A)): ≤ 30 nM
IC50 [4, 10]: 0.114 µM

COCC(=O)N[C@@H](Cc1ccc2c(c1)OCO2)[C@H](O)CN[C@H]1CC2(CCC2)Oc2cnc(CC(C)C)cc21 [compound 664]
IC50 (CYP2D6; 2D6 IC50, CYP2D6 inhibition): 2.3 µM
HLM ([1]; human liver microsomes): 193 µL/min/mg
IC50 [2, 15]: 0.192 µM
RLM ([3]; rat liver microsomes): 276 µL/min/mg
IC50 (CYP3A4 (CYP3A)): ≤ 30 nM
IC50 [4, 16]: 0.118 µM

COCC(=O)N[C@@H](Cc1cccc(F)c1)[C@H](O)CN[C@H]1CC2(CCC2)Oc2c(-c3ccnc(Cl)c3)cc(CC(C)(C)C)cc21 [compound 639, N-((1S,2R)-3-(((4S)-8-(2-chloro-4-pyridinyl)-6-(2,2-dimethylpropyl)-3,4-dihydrospiro[chromene-2,1′-cyclobutan]-4-yl)amino)-1-(3-fluorobenzyl)-2-hydroxypropyl)-2-methoxyacetamide]
IC50 (CYP2D6; 2D6 IC50, CYP2D6 inhibition): 1.8 µM
HLM ([1]; human liver microsomes): 706 µL/min/mg
IC50 [2, 15]: 0.025 µM
RLM ([3]; rat liver microsomes): 399 µL/min/mg
IC50 (CYP3A4 (CYP3A)): 1200 nM
IC50 [4, 16]: 0.005 µM

COC(OC)C(=O)N[C@@H](Cc1ccc2c(c1)OCO2)[C@H](O)CN[C@H]1CC2(CCC2)Oc2ncc(CC(C)C)cc21 [compound 754, N-((1S,2R)-1-(1,3-benzodioxol-5-ylmethyl)-2-hydroxy-3-(((4′S)-6′-(2-methylpropyl)-3′,4′-dihydrospiro[cyclobutane-1,2′-pyrano[2,3-b]pyridin]-4′-yl)amino)propyl)-2,2-dimethoxyacetamide]
IC50 (CYP2D6; [8]): 3.5 µM
HLM ([1]; human liver microsomes): 29 µL/min/mg
IC50 [2, 9]: 0.054 µM
RLM ([3]; rat liver microsomes): 86 µL/min/mg
IC50 (CYP3A4 (CYP3A)): 100 nM
IC50 [4, 10]: 0.037 µM

CO[C@H](C)C(=O)N[C@@H](Cc1ccc(F)c(-c2nccs2)c1)[C@H](O)CN[C@H]1CC2(CCC2)Oc2ncc(CC(C)C)cc21 [compound 768, (2R)-N-((1S,2R)-1-(4-fluoro-3-(1,3-thiazol-2-yl)benzyl)-2-hydroxy-3-(((4′S)-6′-(2-methylpropyl)-3′,4′-dihydrospiro[cyclobutane-1,2′-pyrano[2,3-b]pyridin]-4′-yl)amino)propyl)-2-methoxypropanamide]
IC50 (CYP2D6; [5]): 0.4 µM
HLM ([1]; human liver microsomal data): 39 µL/min/mg
IC50 [2, 6]: 0.105 µM
RLM ([3]; rat liver microsomal data): 70 µL/min/mg
IC50 (CYP3A4 (CYP3A)): 100 nM
IC50 [4, 7]: 0.022 µM

COCC(=O)N[C@@H](Cc1cc(F)cc(-c2nccs2)c1)[C@H](O)CN[C@H]1CC2(CCC2)Oc2ncc([C@@H]3CC3(C)C)cc21 [Example 773, N-((1S,2R)-3-(((4′S)-6′-((1R)-2,2-dimethylcyclopropyl)-3′,4′-dihydrospiro[cyclobutane-1,2′-pyrano[2,3-b]pyridin]-4′-yl)amino)-1-(3-fluoro-5-(1,3-thiazol-2-yl)benzyl)-2-hydroxypropyl)-2-methoxyacetamide]
IC50 (CYP2D6; [5]): 0.3 µM
HLM ([1]; human liver microsomal data): 62 µL/min/mg
IC50 [2, 6]: 0.006 µM
RLM ([3]; rat liver microsomal data): 67 µL/min/mg
IC50 (CYP3A4 (CYP3A)): 300 nM
IC50 [4, 7]: 0.003 µM
